Laboratory results reported in US11957680B2, “Pyruvate kinase activators for use in treating blood disorders” (Agios Pharmaceuticals, Inc., priority 2017, dated 2024).

Assays:
PKR R510Q = PKR R510Q (Homo sapiens, UniProt P30613, R510Q); test: PKR mutant assay (R510Q), AC50, LDH/NADH-coupled, absorbance at 340 nm; assay type: biochemical; conditions: for AC50: read-out: PK R510Q AC50; for EC50: Table 4, AC50, enzyme assay, read-out: PK R510Q
Experimental: (§1) Example 11. PKR Mutant Assay
(§2) PKR or PKR mutant enzyme solution was diluted into a reaction mix, which contains 1× buffer (100 mM KCl, 50 mM Tris pH 7.5, 5 mM MgCl2) as well as PEP (conc depends on enzyme), 180 μM NADH, 0.5 units LDH, 1 mM DTT, 0.03% BSA; final assay concentrations after 1.11 fold dilution are indicated.
(§3) 2 μL of test compound was added into wells first, and then 180 μL reaction mix was added.
(§4) Reactions mixture with test compound was assembled except for ADP, and plates were stored for 60 minutes at room temperature.
(§5) 20 uL ADP was added to start reaction at room temperature and reaction progress was measured as changes in absorbance at 340 nm wavelength at room temperature.
(§6) Test Compound Preparation:
(§7) Test compound stock was made at 100× concentration in 100% DMSO (10 mM)
(§8) 1 to 3 dilutions were made for 11 points (i.e. 50 μl of first concentration added to 100 μl 100% DMSO to yield 3.33 mM, 50 μl of this added to 100 μl DMSO to yield 1.11 mM, and so forth) • 1 to 100 dilution into assay (2 μl in 200 μl) yielded starting concentration of 100 μM, decreasing 3 fold for 11 points.
(§9) Assay Buffer: 100 mM KCl, 50 mM Tris 7.5, 5 mM MgCl2, 1 mM DTT, 0.03% BSA
(§10) Reaction Mixture: PKR mutant enzyme: 40-400 ng/well; ADP: 0.2-1.65 mM; PEP: 0.1-0.5 mM; NADH: 180 μM; LDH: 0.5 units (Sigma #59023); DTT: 1 mM; BSA: 0.03%.

wild type PKR [1] = molecular target: T1, wild type PKR (Homo sapiens, UniProt P30613); test: Cell based ATP assay in purified red blood cells (Cell-Titer-Glo); parameters: endogenous in cells; host or cells: purified red blood cells from healthy volunteers; conditions: overnight at 37° C., ATP levels; for AC50: Table 2, RBCs; for EC50: Table 4, AC50, RBCs
Experimental: Example 16. Red Blood Cell (RBC) Purification
Fresh blood drawn from healthy volunteers into K2EDTA tubes was collected. Whole blood was pelleted by spinning at 500 g for 10 minutes. Cut transfusion bag port off of Purecell leukocyte reduction neofilter (Fisher NC0267633) one (1) inch above filter. Attach a 10 ml syringe barrel to the remaining cut tubing attached to neofilter. The plasma layer was removed from the pellet of the whole blood and the pellet was resuspended in 2× volume of phosphate buffered saline (PBS). Transfer 9 ml re-suspended blood cell pellet to prepared 10 ml syringe that is attached to the neofilter. Allow whole blood to gravity flow through filter until all fluid runs through upper tubing into filter disc. Add plunger to the syringe, remove syringe from clamp and invert the filter, then plunge air through the syringe filter system. Using a new 5 ml syringe, remove filtered RBCs from the bag by the syringe port and transfer purified RBCs to a 5 ml snap cap tube that has been incubated on ice. Spin 5 ml snap cap tube at 500 g for 10 minutes at 15 C, aspirate supernatant and resuspend in AGAM (1×PBS, 1% glucose, 170 mg/L adenine, 5.25 g/L mannitol) at a density of 4×10^9 cells/mL.
Example 17. Cell Based ATP Assay
For cell based ATP assays, the compound as described herein was prepared in 100% DMSO as a 10 mM stock. Serial dilutions (1:4) were performed in 96-well V-bottom storage plate and then added 1:100 to 96-well V-bottom plates containing AGAM. RBCs were diluted in AGAM media to a density of 1×10^7 cells/mL before added 90 μL/well to black clear bottom assay plates (final compound concentration at 0.1% DMSO concentration). Assay plates were sealed using aluminum foil seals and incubated overnight at 37° C. in a humidified chamber. ATP levels were read out using Cell-Titer-Glo (Promega).

wild type PKR [2] = molecular target: T1, wild type PKR; test: PKR (wild type) enzyme AC50 assay, LDH/NADH-coupled, absorbance at 340 nm; assay type: biochemical; conditions: for AC50: read-out: PKR WT AC50; for EC50: Table 4, AC50, enzyme assay, read-out: PKR WT
Experimental: as §1, §2, §3, §4, §5, §6, §7, §8, §9, §10

PKR K410E = PKR K410E (Homo sapiens, UniProt P30613, K410E); test: PKR mutant assay (K410E), AC50, LDH/NADH-coupled, absorbance at 340 nm; assay type: biochemical; conditions: for AC50: Table 2, enzyme assay; for EC50: Table 4, AC50, enzyme assay
Experimental: as §1, §2, §3, §4, §5, §6, §7, §8, §9, §10

T1 sequence (P30613 whole entry): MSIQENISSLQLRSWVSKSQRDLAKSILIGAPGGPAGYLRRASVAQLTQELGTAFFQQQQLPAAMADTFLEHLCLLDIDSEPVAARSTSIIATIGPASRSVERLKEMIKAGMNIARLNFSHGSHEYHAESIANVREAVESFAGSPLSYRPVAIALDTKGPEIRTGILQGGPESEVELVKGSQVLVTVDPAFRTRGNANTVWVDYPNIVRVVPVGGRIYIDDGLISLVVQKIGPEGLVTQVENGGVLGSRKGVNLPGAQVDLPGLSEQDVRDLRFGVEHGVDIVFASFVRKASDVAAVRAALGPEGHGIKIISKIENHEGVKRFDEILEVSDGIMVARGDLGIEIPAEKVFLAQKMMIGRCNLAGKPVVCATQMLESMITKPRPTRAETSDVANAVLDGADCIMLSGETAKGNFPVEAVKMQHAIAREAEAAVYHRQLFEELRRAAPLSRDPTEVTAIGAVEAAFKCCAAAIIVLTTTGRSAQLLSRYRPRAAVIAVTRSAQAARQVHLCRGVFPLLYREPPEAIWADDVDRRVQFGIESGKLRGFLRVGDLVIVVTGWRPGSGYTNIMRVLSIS
PKR K410E, sequence (P30613 whole entry K410E): as the sequence (P30613 whole entry) above, with K410E counted along it
PKR R510Q, sequence (P30613 whole entry R510Q): as the sequence (P30613 whole entry) above, with R510Q counted along it

| SMILES | AC50 (PKR R510Q; Table 2, enzyme assay) [nM] | AC50 (wild type PKR [1]) [nM] | AC50 (wild type PKR [2]; Table 2, enzyme assay) [nM] | AC50 (PKR K410E) [nM] | EC50 (PKR R510Q) [nM] | EC50 (wild type PKR [1]) [nM] | EC50 (wild type PKR [2]) [nM] | EC50 (PKR K410E) [nM] | PK R510Q AC50 (PKR R510Q; Table 2, enzyme assay) | PKR WT AC50 (wild type PKR [2]; Table 2, enzyme assay) |
| --- | --- | --- | --- | --- | --- | --- | --- | --- | --- | --- |
| Cc1nc2c(s1)c1cnn(Cc3cccc(O)c3)c(=O)c1n2C [Compound 7] | < 300 | ≤ 1000 | < 300 | < 300 | – | – | – | – | – | – |
| Cn1c2nc(Cc3cc[nH]n3)sc2c2cnn(Cc3ccc4cc[nH]c4n3)c(=O)c21 [Compound 380] | – | – | – | – | < 300 | ≤ 1000 | < 300 | < 300 | – | – |
| Cn1c2nc(C(C(N)=O)c3ccccc3)sc2c2cnn(Cc3cccc4[nH]ncc34)c(=O)c21 (stereo not drawn) [Compound 127] | < 300 | ≤ 1000 | < 300 | < 300 | – | – | – | – | – | – |
| Cn1c2nc(Cc3cc[nH]n3)sc2c2cnn(Cc3ccc4cc(Cl)[nH]c4n3)c(=O)c21 [Compound 388] | – | – | – | – | < 300 | ≤ 1000 | < 300 | < 300 | – | – |
| Cn1c2nc([S+](C)[O-])sc2c2cnn(Cc3ccc(C(N)=O)cc3)c(=O)c21 (stereo not drawn) [Compound 98] | – | > 1000 | – | > 800 | – | – | – | – | No Fit | No Fit |
| Cn1c2nc(C(=O)NO)sc2c2cnn(Cc3cccc4[nH]ncc34)c(=O)c21 [Compound 138] | 301 to 800 | > 1000 | 301 to 800 | < 300 | – | – | – | – | – | – |
| CCOC(=O)c1scnc1Cc1nc2c(s1)c1cnn(Cc3cccc4[nH]ncc34)c(=O)c1n2C [Compound 165] | 301 to 800 | ≤ 1000 | 301 to 800 | > 800 | – | – | – | – | – | – |
| Cn1ccc(Cc2nc3c(s2)c2cnn(Cc4cccc5[nH]ncc45)c(=O)c2n3C)n1 [Compound 157] | < 300 | ≤ 1000 | < 300 | < 300 | – | – | – | – | – | – |
| Cn1c2nc(Cc3cc[nH]n3)sc2c2cnn(CCc3cccc(N)n3)c(=O)c21 [Compound 385] | – | – | – | – | < 300 | ≤ 1000 | < 300 | < 300 | – | – |
| Cn1ccc(Cn2ncc3c4sc(CCc5cc[nH]n5)nc4n(C)c3c2=O)n1 [Compound 393] | – | – | – | – | < 300 | ≤ 1000 | < 300 | < 300 | – | – |
| Cn1c2nc(Cc3ccc(C(N)=O)cc3)sc2c2cnn(Cc3cccc4[nH]ncc34)c(=O)c21 [Compound 112] | > 800 | > 1000 | > 800 | > 800 | – | – | – | – | – | – |
| Cn1c2nc(Cc3cnco3)sc2c2cnn(Cc3cccc4[nH]ncc34)c(=O)c21 [Compound 240] | – | – | – | – | 301 to 800 | ≤ 1000 | 301 to 800 | > 800 | – | – |
| Cn1c2nc(Cc3n[nH]cc3C(F)(F)F)sc2c2cnn(Cc3cccc4[nH]ncc34)c(=O)c21 [Compound 172] | > 800 | > 1000 | > 800 | > 800 | – | – | – | – | – | – |
| Cn1ncc2cc(Cn3ncc4c5sc(Cc6cc[nH]n6)nc5n(C)c4c3=O)ccc21 [Compound 224] | – | – | – | – | < 300 | ≤ 1000 | < 300 | < 300 | – | – |
| COc1ncc(Cc2nc3c(s2)c2cnn(Cc4cccc5[nH]ncc45)c(=O)c2n3C)cn1 [Compound 207] | – | – | – | – | > 800 | ≤ 1000 | 301 to 800 | 301 to 800 | – | – |
| COc1cccc(Cn2ncc3c4sc(C(C)=O)nc4n(C)c3c2=O)c1 [Compound 62] | < 300 | ≤ 1000 | < 300 | < 300 | – | – | – | – | – | – |
| CC(O)c1cccc(Cn2ncc3c4sc([S+](C)[O-])nc4n(C)c3c2=O)c1 (stereo not drawn) [Compound 88] | 301 to 800 | ≤ 1000 | < 300 | 301 to 800 | – | – | – | – | – | – |
| Cn1c2nc(CN)sc2c2cnn(Cc3cccc4[nH]ncc34)c(=O)c21 [Compound 132] | 301 to 800 | > 1000 | > 800 | 301 to 800 | – | – | – | – | – | – |
